Assay results as given in US20090172831A1, “Methods for the production of plants resistant to HPPD herbicides” (Syngenta Limited, priority 2000, published 2009).
Where “and” joins values, the source holds several entries; their conditions need not be identical. Equal entries are not always repeated. Where two headings read alike, the source gives them in different places.

How the values were obtained:
Arabidopsis HPPD [1] = target: T1, Arabidopsis HPPD (Arabidopsis thaliana, UniProt P93836); assay: Dissociation of enzyme/inhibitor complexes by exchange with 14C-labelled inhibitor (koff; Kd = koff/kon); assay type: binding
T1 construct: made in house; host or cells: E. coli BL21 (DE3) codon+ RP
T1 sequence (P93836 1-445): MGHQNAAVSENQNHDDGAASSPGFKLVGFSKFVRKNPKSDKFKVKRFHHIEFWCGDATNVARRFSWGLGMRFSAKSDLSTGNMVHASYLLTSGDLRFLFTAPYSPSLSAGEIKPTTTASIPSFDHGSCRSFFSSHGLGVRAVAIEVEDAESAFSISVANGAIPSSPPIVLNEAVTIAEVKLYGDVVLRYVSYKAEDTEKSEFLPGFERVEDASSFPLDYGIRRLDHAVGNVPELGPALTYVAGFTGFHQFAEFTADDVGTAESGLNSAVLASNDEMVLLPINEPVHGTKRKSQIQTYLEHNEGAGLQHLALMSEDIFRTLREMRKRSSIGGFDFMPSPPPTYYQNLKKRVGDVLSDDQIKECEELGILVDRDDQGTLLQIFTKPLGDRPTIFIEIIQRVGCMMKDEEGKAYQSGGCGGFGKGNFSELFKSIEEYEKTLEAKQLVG
Method: It will be appreciated that many suitable methods known in the art for determining such low koff values are suitable for working the current invention. These include measuring rates of exchange of radio or otherwise labelled inhibitors either with or away from the enzyme inhibitor complex. For example enzyme inhibitor complexes can readily be prepared by incubating HPPD preparations with labelled or unlabelled inhibitor and then, after suitable periods, optionally rapidly separating the thus formed enzyme inhibitor complex from excess inhibitor by any suitable method such as ultrafiltration, binding to filters or exchange down a gel filtration column. Exchange reactions with the, thus prepared enzyme inhibitor complex is then initiated by addition of, as appropriate, excess labelled or unlabelled inhibitor. […] Many methods such as radiometric, fluorimetric, NMR, fluorescence depolarisation, EPR, Mossbauer, UV/VIS spectrophotometry etc. or phonon resonance can, in principle, be used to monitor the enzyme/ligand exchange reactions and, particularly in this case where the enzyme contains an iron atom at the ligand binding site. Optionally, the monitoring method may be continuous (as, for example, with scintillation proximity/bead-based methods) or, discontinuous, based upon collection of data at various timepoints wherein samples are removed and the bound and unbound label components rapidly separated and quantitated.
Values of koff can suitably be calculated by computer fitting based upon is numerical integration of the exchange data along with information on the active-site concentration of HPPD and upon kon values obtained as described below. […] In any event, koff values are always here calculated from the rate of the major slow exchange reaction.
^14C mesotrione is of specific activity 1.12 GBq/mmol. […] Following this initial binding reaction, exchange reactions are initiated by addition of cold mesotrione to a final concentration of 60 μM and 200 μl aliquots removed at various times to rapid chromatography down a NAP5 gel filtration column equilibrated in 50 mM BTP at pH 7 containing 0.1 M KCl, separation into fractions containing protein-bound or free radiolabel and liquid scintillation counting.
Nevertheless, here, for practical purposes, koff values are always here calculated from the rate of the major slow exchange reaction.
Not all test inhibitors are readily available in a radiolabelled form.

dicot plants = assay: Herbicidal activity versus dicot plants averaged over 6 or more species; details: in vivo
From the text: Activity versus dicot plants refers here to herbicidal activity averaged over a range of 6 or more of those dicot weed and crop species usually used in screens used for compound discovery in the agrochemical community. Herbicidal activity versus dicot plants also refers here to that activity which is due to the inhibitor per se rather than due to some, potentially more herbicidal, metabolite of it which may be formed in planta or otherwise.

Wheat HPPD = Wheat HPPD (Triticum aestivum, UniProt A0A3B6NLC6); assay: kon from HPLC enzyme assay (progressive inhibition / timed pre-reaction); assay type: biochemical; details: for observed first order decay rate constant: 100 μM HPP (no inhibitor: 0.016)
Wheat HPPD, sequence (A0A3B6NLC6 entry or part of it): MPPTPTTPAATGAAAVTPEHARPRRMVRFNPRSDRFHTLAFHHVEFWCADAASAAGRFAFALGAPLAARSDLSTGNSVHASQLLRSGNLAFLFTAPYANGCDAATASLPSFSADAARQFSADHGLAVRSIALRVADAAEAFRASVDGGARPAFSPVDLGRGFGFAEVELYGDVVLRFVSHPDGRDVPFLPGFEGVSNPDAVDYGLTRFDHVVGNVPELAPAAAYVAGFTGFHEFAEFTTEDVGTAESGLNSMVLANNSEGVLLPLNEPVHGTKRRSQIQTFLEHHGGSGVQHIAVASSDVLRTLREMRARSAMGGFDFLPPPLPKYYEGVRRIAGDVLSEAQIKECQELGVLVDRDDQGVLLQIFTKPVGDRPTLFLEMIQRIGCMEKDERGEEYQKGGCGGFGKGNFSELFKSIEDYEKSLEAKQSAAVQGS

Arabidopsis HPPD [2] = target: T1, Arabidopsis HPPD; assay: Inhibition of HPPD (E. coli extract) after pre-incubation with inhibitor; assay type: biochemical; details: read-out: inhibition (relative to controls)
Method: Qualitative measurements of the differences in Kd values in respect of different HPPD inhibitors are obtained by pre-incubating enzyme with inhibitor and, then, subsequently, measuring the % inhibition. For example HPPD is isolated from maize seedlings, part purified and assayed by similar methods to those described by Schulz et al 1993 (FEBS LETS. 318, 162-166) and by Secor (1994) in Plant Physiol. 106, 1429-1433. Assays are run for 30 minutes and started with addition of radiolabelled hydroxyphenylpyruvate (final concentration ˜0.1-0.2 mM) following a 20-30 min period over which inhibitor is pre-incubated with the part-purified enzyme.
Using the same assay method but using HPPD from Arabidopis (obtained from E. coli cells transformed to express the Arabidopsis HPPD and prepared as an E. coli extract similar to the methods described by Garcia et al in Plant Physiol (1999) 119, 1507-1516) the following levels of inhibition (relative to controls) are observed with the following doses of herbicide versus Arabidopsis HPPD.

[3] = tested on: untransformed tobacco explants; assay: Explants on MS agar containing mesotrione, bleaching; assay type: in vivo; details: MS agar + 3% sucrose
From the text: Explants (i.e. a leaf plus short segment of stem containing the auxiliary bud) are placed into MS agar (+3% sucrose) containing various concentrations of mesotrione (see above) from 0.02 to 2 ppm. In tobacco, for example, untransformed explants are fully bleached at 0.02 ppm. […] In these particular experiments, only the shoot that develops from the bud is bleached, the leaf on the explanted tissue remains green.

[4] = tested on: tobacco plants transformed to express wheat HPPD; assay: Tolerance of tobacco transformed with wheat HPPD to herbicides; assay type: in vivo; details: MS agar; a number of PCR+ve transformants (0.1), a sub-set (>0.2); listed as mesotrione
From the text: These constructs were all transformed into Agrobacterium tumefaciens strain LBA4404, which in turn was used to transform tobacco, using methodology described previously.

SMILES | Kd (Arabidopsis HPPD [1]) [nM] | ratio Kd2/Kd4, structure II to structure VII (Arabidopsis HPPD [1]) | ratio koff2/koff4, structure II to structure VII (Arabidopsis HPPD [1]) | koff (Arabidopsis HPPD [1]; without 25% v/v glycerol, exchange with 14C mesotrione) [s⁻¹] | koff (Arabidopsis HPPD [1]; − glycerol) [s⁻¹] | herbicidal activity versus dicot plants relative to mesotrione (dicot plants) | kon (Wheat HPPD) [M⁻¹ s⁻¹] | observed first order decay rate constant (Wheat HPPD; 2.5 μM inhibitor) [s⁻¹] | observed first order decay rate constant (Wheat HPPD; 10 μM inhibitor) [s⁻¹] | inhibition at 0.001 µM (Arabidopsis HPPD [2]; 1 nM) [%] | inhibition at 0.01 µM (Arabidopsis HPPD [2]; 10 nM) [%] | inhibition at 0.1 µM (Arabidopsis HPPD [2]; 100 nM) [%] | inhibition at 1 µM (Arabidopsis HPPD [2]; 1000 nM) [%] | concentration at which explants are fully bleached [3] [ppm] | Kd (Arabidopsis HPPD [1]; Kd, value obtained + glycerol (in parentheses)) [nM] | Kd (Arabidopsis HPPD [1]; Kd, without glycerol, Kd = koff/kon) [nM] | concentration tolerated with no indication of bleaching / plants looking normal [4]
Cc1nc(C(F)(F)F)ccc1C(=O)C1C(=O)C2CCC(C2)C1=O (centres unmarked) [Structure II] | 0.11 | 3.4 | 11 and 8.6 | ~1.16e-05 | 1.16e-05 | at least a quarter of the herbicidal activity of mesotrione | 48000 to 57200 | 0.029 | 0.06 | – | – | – | – | – | – | – | –
CS(=O)(=O)c1ccc(C(=O)C2C(=O)CCCC2=O)c([N+](=O)[O-])c1 [Structure I, 2-(Nitro-4-methanesulphonylbenzoyl)-cyclohexane-1,3-dione, reference compound] | – | – | – | – | – | – | – | – | – | 42 | 95 | 100 | 100 | 0.02 | 0.021 | 0.014 | 0.1 ppm and > 0.2 ppm
